Results as given in patent US20030105115A1, “Novel pyridopyrimidines and uses thereof” (priority 2001, published 2003).

Assay: Hydroxyapatite assay (hydroxyapatite adsorption chromatography, bone-targeting potential)
Assay type: physicochemical
Conditions: corrected retention K=(retention time-void time)/void on TSK-Gel HA 1000 HPLC column; linear gradient 10 mM to 500 mM sodium phosphate, 0.15 N NaCl, pH 6.8
Text: Hydroxyapatite is the principal mineral component of bone. Hydroxyapatite adsorption chromatography is used as an assay to evaluate the bone-targeting potential of both individual bone-targeting moieties (“monomers”) and of pharmaceuticals incorporating bone-targeting groups.
The rentention time of the compound is expressed in terms of K=(retention time-void time)/void. This K value is corrected using two reference compounds to correct from inter-column and inter-system variation to obtain a K′ value.
Reference Compounds: K′ values were determined for known bone targeted compounds, the bisphosphonate, alendronate and tetracycline.

## NCCCC(O)(P(=O)(O)O)P(=O)(O)O [Alendronate, alendronate]
  K′ value: 3.7
